In data set [1] the test system is H460. The experiment in a line: Cell viability, H460. As to conditions: for IC50: Homo sapiens, NCI-H460, cell viability, mean ± standard deviation of three independent experiments. The data set is classed as cell-based. As to the method: (§1) The inhibition information for cells H460 and PC3ML is also shown by FIG. 2. […] The structures of compounds 1-3 are shown in Table 1, above, and the structure of compound 4 is as follows:
(§2) The effectiveness of compound A was also evaluated, in comparison with compound 1 shown in Table 1, by determining mean IC50 values, which were measured for three independent experiments (each in triplicate) for compounds 1 and A. All points were normalized to control as a percentage of cell viability and statistics were completed with Graphpad Prism software.

Data set [2] deals with PC3ML. The experiment in a line: Cell viability, PC3ML. Type of data set: cell-based. As to conditions: for IC50: PC3-ML, cell viability, mean ± standard deviation of three independent experiments. As to the method:
as §1, §2

The test system of data set [3] is A549L. The data set can be described thus: Cell viability IC50, A549L. Type of data set: cell-based. As to conditions: mean ± standard deviation of three independent experiments. Here is the method:
as §2

For data set [4], the target named is T1, BCL-xL (Homo sapiens, UniProt Q07817).
T1 construct: Recombinant full length BCL-XL was produced from a pET-19b (Novagen) plasmid construct; poly-His (N); made in house; host or cells: E. coli BL21
The experiment in a line: Dissociation constant (Kd) / binding to BCL-xL. Here is the method: The inhibition was also evaluated by measuring dissociation constant (Kd) values for compound A in comparison with some related compounds 1, 2, and 3.
For all NMR experiments, BCL-xL was exchanged into 50 mM phosphate buffer at pH 7.5 and measurements were performed at 30° C. 2D [^15N,^1H]-HSQC spectra for BCL-xL were measured with 0.5 mM samples of ^15N-labeled protein. All experiments were performed with a 600 MHz Bruker Avance spectrometer, both equipped with either a TXI probe or a TCI cryoprobe. In all experiments, dephasing of residual water signals was obtained with a WATERGATE sequence. In order to test the ability of test compounds to bind to Bcl-xL, a 25 μM sample of the protein was prepared and 1D ^1H NMR spectra were collected in absence and presence of test compounds. By observing the aliphatic region of the spectra, binding can be readily detected in these simple experiments due to chemical shift changes in active site methyl groups of Ile, Leu, Thr, Val or Ala (region between 0.8 and 0.3 ppm).

Data set [5] is described as follows: Plasma stability. Type of data set: in vitro ADME.
Data set [6] concerns RS11846S. The experiment in a line: Cell viability IC50, RS11846S. Type of data set: cell-based. To be noted: mean ± standard deviation of three independent experiments. As to the method: as §2
Data set [7] in a line: Microsomal stability. Type of data set: in vitro ADME.
The subject of data set [8] is B6Bcl2 mice. The data set can be described thus: Safety in B6Bcl2 mice (weight loss, physical exam). To be noted: regardless of route of administration (oral or intraperitoneal). The data set is classed as in vivo, mouse. Here is the method:
(§3) Compound A was given to B6Bcl2 mice at a daily dose of […] for 3 days through oral gavage. […] Both compound A and the negative control were preliminarily dissolved in PBS. After 3 days, the spleens of the animals were removed and weighed.
(§4) In parallel experiments, compound A was also administered intraperitoneally at […], as were some related compounds, such as compounds 1 and 2 shown in Table 1, above. In these experiments, after 24 hours, the spleens of the animals were removed and weighed.
(§5) The results of efficacy of compound A administered intraperitoneally were also compared with the results obtained when compound A was administered orally. […] Accordingly, compound A can be administered in both ways, orally or intraperitoneally. […] It was also shown that compound A can be administered safely.

Data set [9] relates to B6Bcl2 mice. The experiment in a line: Spleen shrinkage / in vivo efficacy in B6Bcl2 transgenic mice. To be noted: for in vivo activity / order of potency in terms of in vivo efficacy: B6BCL-2 transgenic mouse. More on the design: species or system mouse.
From the text: In the same model, another known compound apogossypolone was not effective. Gossypol is described, e.g., in U.S. Pat. No. 7,186,708. Apogossypol is described, e.g., in Meyers A. I.; Willemsen J. J., Tetrahedron Letters, vol. 37, No. 6, February, […], pp. 791-792.
as §3, §4, §5

Setting [10] is: FIG. 2, in comparison with compounds 1-4.

For orientation: IC50 means the midpoint of a concentration-inhibition curve. Low values mean greater potency in that assay, high ones weaker potency in that assay. What is called Kd is the free concentration of one partner at which half of the binding sites on the other are occupied at equilibrium, for simple one-to-one binding. Read a high Kd as a looser complex.

T1 sequence (Q07817 whole entry, species assumed): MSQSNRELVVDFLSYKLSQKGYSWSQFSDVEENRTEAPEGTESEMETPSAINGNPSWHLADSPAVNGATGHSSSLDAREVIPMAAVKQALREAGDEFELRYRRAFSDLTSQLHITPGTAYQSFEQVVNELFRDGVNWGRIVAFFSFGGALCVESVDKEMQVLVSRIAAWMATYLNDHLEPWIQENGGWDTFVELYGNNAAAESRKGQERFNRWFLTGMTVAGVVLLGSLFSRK

Consider `CC(C)C(C(=O)O)N1C(=O)/C(=C\c2ccc(Br)cc2)SC1=S` (stereo not drawn) [Compound 1], for which the IC50 worked out at 3000 ± 2400 nM in [1], 60900 ± 1600 nM in data set [2], 12200 ± 5900 nM in data set [3] and 6500 ± 10000 nM in [6]. Moreover, the Kd in data set [4] stood at 1100 nM. In data set [5], the “Plasma Stability, % (45 minutes)” value turned out to be 56%. For the same compound, the “Microsomal Stability, % (45 minutes)” value in data set [7] is listed as 54%.

In turn, `CC(C)C(C(=O)O)N1C(=O)/C(=C\c2ccc(-c3ccccc3)cc2)SC1=S` (stereo not drawn) [Compound 2] registered a Kd in data set [4] of 160 nM. Also, the “Plasma Stability, % (45 minutes)” value in data set [5] is reported as 59%. Also, the “Microsomal Stability, % (45 minutes)” value in [7] worked out at 22%.

In data set [4], `CC(=C\c1ccccc1)/C=C1/SC(=S)N(C(C(=O)O)C(C)C)C1=O` (stereo not drawn) [Compound 3] yielded a Kd of 11800 nM. In data set [5], the “Plasma Stability, % (45 minutes)” value is 51%. Moreover, the “Microsomal Stability, % (45 minutes)” value in [7] came to 75%.

With `O=C(O)CN1C(=O)S/C(=C\c2ccc(-c3ccccc3)cc2)C1=O` [Compound A, (Z)-2-(5-(biphenyl-4-ylmethylene)-2,4-dioxothiazolidin-3-yl)acetic acid], the “influence on the cell viability” value in [1] (setting [10]) and in [2] (setting [10]) was “largest influence on the cell viability” throughout. The IC50 was 500 ± 300 nM in data set [1], 700 ± 600 nM in [2], 800 ± 300 nM in data set [3] and 400 nM in data set [6]. The compound further returned a Kd in data set [4] of 14000 nM. Besides, the “Plasma Stability, % (45 minutes)” value in [5] was determined as 58%. Also, the “Microsomal Stability, % (45 minutes)” value in [7] was 72%. Moreover, the “weight loss or signs of toxicity via physical exam” value in data set [8] is “no weight loss or signs of toxicity”. Besides, the in vivo activity entry in [9] is “equal to, or better than, known compounds gossypol and apogossypol”. The “order of potency in terms of in vivo efficacy” value in data set [9] is “compound A>apogossypol=gossypol”. In data set [9] (either route, orally or intraperitoneally), the shrinkage of spleen result was “induced shrinkage of spleen”. Also, the “degree of shrinkage of spleen, intraperitoneal injection higher than oral dosing” value in data set [9] (intraperitoneal vs oral, FIG. 4) is listed as “about 100%”. Moreover, the “degree of shrinkage of spleen higher than that induced by compounds 1 or 2” value in data set [9] (intraperitoneally at 60 mmol/kg, spleens weighed after 24 hours, FIG. 3) is listed as “about 40%”.

With `Cc1cc2c(C(C)C)c(O)c(O)cc2c(O)c1-c1c(C)cc2c(C(C)C)c(O)c(O)cc2c1O` [apogossypol], in data set [9], the “order of potency in terms of in vivo efficacy” value is given as “compound A>apogossypol=gossypol”.

apogossypolone: in [9], the in vivo activity result is on record as “not effective”.

Values taken from patent US20090258914A1, “Inhibitor of Anti-Apoptotic Proteins” (Burnham Institute for Medical Research, priority 2008, published 2009).
